In general, IC50 refers to the point on the concentration scale where inhibition reaches its midpoint.

Among the data in patent US20250154105A1, “POLYCYCLIC COMPOUND AND USE THEREOF” (TYK MEDICINES, INC., priority 2021, published 2025) are IC50 values, retold here.

The test system of one assay is YAP-TEAD. Briefly: YAP-TEAD inhibitor activity by Nano luciferase method (8xGTiiC-nLuc reporter in 293T cells). The format is cell-based. The conditions noted are these: Homo sapiens, HEK-293T, 48 hours incubation, read-out: Nano-luciferase detection (IC50). An outline of the steps:
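293T cells transiently transfected with pGL3B-8xGTiiC-nLuc-CMV-fLuc, seeded 2000 cells/well, then treated 48 h at 37 °C with compounds in 1:3.16 dilution series (top 10,000 nM). Nano luciferase signal read after cell lysis; IC50 from percent of 0 nM control.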

The subject of assay [1] is human pleural mesothelioma cells NCI-H226. The experiment in a line: Cell anti-proliferation experiment (CCK8), NCI-H226. The assay is classed as cell-based. The method in brief: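 Viability was measured by CCK-8 (3 h, A450) after 3-day treatment with 0.15–333.33 nM compound in 0.1% DMSO medium. Curve-fitted IC50 was based on viability normalised to no-drug and cell-free controls.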

Take `C[C@H](NC(=O)c1ccc2c(n1)c1c(Cl)scc1c(=O)n2-c1ccc(C(F)(F)F)cc1)c1ccccn1` [Example T-387]: the IC50 (in the assay with YAP-TEAD; in assay [1]) was no more than 1 µM in each case.

For `C[C@H](NC(=O)c1ccc2c(n1)c1csc(Cl)c1c(=O)n2-c1ccc(C(F)(F)F)cc1)c1ccccn1` [Example T-388], the IC50 (in the assay with YAP-TEAD; in assay [1]) was no more than 1 µM each time.

With `C[C@H](NC(=O)c1ccc2c(n1)c1cocc1c(=O)n2-c1ccc(C(F)(F)F)cc1)c1ccccn1` [Example T-389], the IC50 (in the assay on YAP-TEAD; in assay [1]) was no more than 1 µM in each case.

For `C[C@H](NC(=O)c1ccc2c(c1)c1ocnc1c(=O)n2-c1ccc(C(F)(F)F)cc1)c1ccccn1` [Example T-391], the IC50 (in the assay on YAP-TEAD; in assay [1]) was no more than 1 µM throughout.

In the case of `C[C@H](NC(=O)c1ccc2c(c1)c1nocc1c(=O)n2-c1ccc(C(F)(F)F)cc1)c1ccccn1` [Example T-395], the IC50 (in the assay with YAP-TEAD; in assay [1]) was no more than 1 µM throughout.

Regarding `C[C@H](NC(=O)c1ccc2c(c1)c1ncoc1c(=O)n2-c1ccc(C(F)(F)F)cc1)c1ccccn1` [Example T-396], the IC50 (in the assay on YAP-TEAD; in assay [1]) was no more than 1 µM each time.

As to `C[C@@H](NC(=O)c1ccc2c(c1)c1cscc1c(=O)n2-c1ccc(C(F)(F)F)cc1)c1cccc(N)n1` [Example T-397], the IC50 (with YAP-TEAD; in assay [1]) was no more than 1 µM throughout.

For `C[C@H](NC(=O)c1cnc2c(c1)c1cscc1c(=O)n2-c1ccc(C(F)(F)F)nn1)c1ccccn1` [Example T-398], the concentration for half-maximal inhibition (IC50) (in the assay with YAP-TEAD; in assay [1]) was 1 to 5 µM throughout.

With `C[C@H](NC(=O)c1ccc2c(c1)c1ccccc1c(=O)n2-c1ccc(C(F)(F)F)cc1)c1cccc(N)n1` [Example T-399], the IC50 (with YAP-TEAD; in assay [1]) was no more than 1 µM each time.

As for `C[C@H](NC(=O)c1cnc2c(c1)c1ccoc1c(=O)n2-c1ccc(C(F)(F)F)cc1)c1ccccn1` [Example T-400], the IC50 (in the assay on YAP-TEAD; in assay [1]) was no more than 1 µM throughout.

For the compound `CCn1cc2c(=O)n(-c3ccc(C(F)(F)F)cc3)c3ncc(C(=O)N[C@@H](C)c4ccccn4)cc3c2n1` [Example T-401], the 50% inhibitory concentration (IC50) (in the assay on YAP-TEAD; in assay [1]) was no more than 1 µM in each case.

With `C[C@H](NC(=O)c1ccc2c(n1)c1ccccc1c(=O)n2-c1ccc(C(F)(F)F)cc1)c1ccccn1` [Example T-403], the IC50 (with YAP-TEAD; in assay [1]) was no more than 1 µM each time.

Take `Cc1cc2c(=O)n(-c3ccc(C(F)(F)F)cc3)c3ncc(C(=O)N[C@@H](C)c4ccccn4)cc3c2s1` [Example T-404]: the half-maximal inhibitory concentration (IC50) (in the assay with YAP-TEAD; in assay [1]) was no more than 1 µM in each case.

As for `C[C@H](NC(=O)c1cnc2c(c1)c1sc(Cl)c(Br)c1c(=O)n2-c1ccc(C(F)(F)F)cc1)c1ccccn1` [Example T-405], the IC50 (in the assay with YAP-TEAD; in assay [1]) was no more than 1 µM each time.

With `C[C@H](NC(=O)c1cnc2c(c1)c1cnccc1c(=O)n2-c1ccc(C(F)(F)F)cc1)c1ccccn1` [Example T-406], the 50% inhibitory concentration (IC50) (in the assay on YAP-TEAD; in assay [1]) was no more than 1 µM each time.

For the compound `C[C@H](NC(=O)c1cnc2c(c1)c1cc(F)ccc1c(=O)n2-c1ccc(C(F)(F)F)cc1)c1ccccn1` [Example T-407], the IC50 (in the assay on YAP-TEAD; in assay [1]) was no more than 1 µM each time.

On to `Cc1ccc2c(=O)n(-c3ccc(C(F)(F)F)cc3)c3ncc(C(=O)N[C@@H](C)c4ccccn4)cc3c2c1` [Example T-408], for which the IC50 (in the assay on YAP-TEAD; in assay [1]) was no more than 1 µM in each case.

`C[C@H](NC(=O)c1cnc2c(c1)c1nscc1c(=O)n2-c1ccc(C(F)(F)F)cc1)c1cccc(N)n1` [Example T-409]: the IC50 (in the assay with YAP-TEAD; in assay [1]) was no more than 1 µM throughout.

In the case of `C[C@H](NC(=O)c1cnc2c(c1)c1cc(C#N)ccc1c(=O)n2-c1ccc(C(F)(F)F)cc1)c1ccccn1` [Example T-410], the IC50 (with YAP-TEAD; in assay [1]) was no more than 1 µM in each case.

Take `C[C@H](NC(=O)c1ccc2c(c1)c1c(cnn1CC(F)(F)F)c(=O)n2-c1ccc(C(F)(F)F)cc1)c1ccccn1` [Example T-411]: the results for the IC50 (in the assay with YAP-TEAD; in assay [1]) were no more than 1 µM and 1 to 5 µM, respectively.

For `C=CC(=O)Nc1ccc2c(c1)cc(C)c(=O)n2-c1ccc(C(F)(F)F)cc1` [Example T-412], the IC50 (in the assay on YAP-TEAD; in assay [1]) was no more than 1 µM each time.

Turning to `Cc1cc(=O)n(-c2ccc(C(F)(F)F)cc2)c2ccc(C(=O)N[C@@H](C)c3cccc(N)n3)cc12` [Example T-413], the IC50 (in the assay with YAP-TEAD; in assay [1]) was no more than 1 µM each time.

For `Cc1cc2cc(C(=O)N[C@@H](C)c3cccc(N)n3)ccc2n(-c2ccc(C(F)(F)F)cc2)c1=O` [Example T-414], the IC50 (in the assay on YAP-TEAD; in assay [1]) was no more than 1 µM in each case.

On to `Cc1cc2cc(C(=O)N[C@@H](C)c3ccccn3)ccc2n(-c2ccc(C(F)(F)F)cc2)c1=O` [Example T-415], for which the IC50 (in the assay on YAP-TEAD; in assay [1]) was no more than 1 µM in each case.

Take `C[C@H](NC(=O)c1ccc2c(c1)cc(C(F)F)c(=O)n2-c1ccc(C(F)(F)F)cc1)c1cccc(N)n1` [Example T-417]: the IC50 (with YAP-TEAD; in assay [1]) was no more than 1 µM throughout.

As for `C=CC(=O)Nc1ccc2c(c1)c1nscc1c(=O)n2-c1ccc(C(F)(F)F)cc1` [Example T-418], the concentration for half-maximal inhibition (IC50) (in the assay with YAP-TEAD; in assay [1]) was no more than 1 µM in each case.

On to `C[C@H](NC(=O)c1ccc2c(c1)c1ncccc1c(=O)n2-c1ccc(C(F)(F)F)cc1)c1cccc(N)n1` [Example T-419], for which the IC50 (in the assay on YAP-TEAD; in assay [1]) was no more than 1 µM throughout.

In the case of `CNS(=O)(=O)c1ccc2c(c1)cc(C)c(=O)n2-c1ccc(C(F)(F)F)cc1` [Example T-421], the half-maximal inhibitory concentration (IC50) (in the assay on YAP-TEAD; in assay [1]) was no more than 1 µM in each case.

Take `C[C@H](NC(=O)c1ccc2c(ccc(=O)n2-c2ccc(C(F)(F)F)cc2)c1)c1cccc(N)n1` [Example T-423]: the IC50 (in the assay on YAP-TEAD; in assay [1]) was no more than 1 µM each time.

As for `C=CC(=O)Nc1ccc2c(c1)c1c(c(=O)n2-c2ccc(C(F)(F)F)cc2)CCC1` [Example T-424], the IC50 (in the assay on YAP-TEAD; in assay [1]) was no more than 1 µM in each case.

Turning to `C[C@H](NC(=O)c1ccc2c(c1)c1c(c(=O)n2-c2ccc(C(F)(F)F)cc2)CCC1)c1cccc(N)n1` [Example T-425], the IC50 (in the assay on YAP-TEAD; in assay [1]) was no more than 1 µM throughout.

Turning to `COC[C@H](C)NC(=O)c1ccc2c(c1)C1=C(CCC1)CN2c1ccc(C(F)(F)F)cc1` [Example T-426], the IC50 (with YAP-TEAD; in assay [1]) was no more than 1 µM each time.

With `CNS(=O)(=O)c1ccc2c(c1)c1c(c(=O)n2-c2ccc(C(F)(F)F)cc2)CCC1` [Example T-427], the IC50 (with YAP-TEAD; in assay [1]) was no more than 1 µM each time.

On to `C[C@H](NC(=O)c1ccc2c(c1)c1c(c(=O)n2-c2ccc(C(F)(F)F)cc2)CCCC1)c1cccc(N)n1` [Example T-428], for which the IC50 (in the assay with YAP-TEAD; in assay [1]) was no more than 1 µM throughout.

For `C[C@H](NC(=O)c1ccc2c(c1)c1sccc1c(=O)n2-c1ccc(C(F)(F)F)cc1)c1cccc(N)n1` [Example T-429], the IC50 (in the assay on YAP-TEAD; in assay [1]) was no more than 1 µM in each case.

On to `CNc1cccc([C@H](C)NC(=O)c2ccc3c(ccc(=O)n3-c3ccc(C(F)(F)F)cc3)c2)n1` [Example T-430], for which the IC50 (in the assay with YAP-TEAD; in assay [1]) was no more than 1 µM each time.

For `Cc1c(C)c2cc(C(=O)N[C@@H](C)c3cccc(N)n3)ccc2n(-c2ccc(C(F)(F)F)cc2)c1=O` [Example T-431], the IC50 (in the assay on YAP-TEAD; in assay [1]) was no more than 1 µM in each case.

Turning to `CS(=O)(=O)Nc1ccc2c(c1)c1c(c(=O)n2-c2ccc(C(F)(F)F)cc2)CCC1` [Example T-432], the IC50 (with YAP-TEAD; in assay [1]) was no more than 1 µM throughout.

As for `C[C@H](NC(=O)c1ccc2c(c1)c1cnccc1c(=O)n2-c1ccc(C(F)(F)F)cc1)c1cccc(N)n1` [Example T-434], the IC50 (with YAP-TEAD; in assay [1]) was no more than 1 µM throughout.

For `C[C@H](NC(=O)c1ccc2c(c1)c1nscc1c(=O)n2-c1ccc(C(F)(F)F)cc1)c1cccc(N)n1` [Example T-435], the IC50 (with YAP-TEAD; in assay [1]) was no more than 1 µM throughout.

As for `Cc1c(C)c2cc(C(=O)N[C@@H](C)c3ccccn3)ccc2n(-c2ccc(C(F)(F)F)cc2)c1=O` [Example T-436], the IC50 (in the assay on YAP-TEAD; in assay [1]) was no more than 1 µM throughout.

For `C[C@H](NC(=O)c1cnc2c(c1)c1ccccc1c(=O)n2-c1ccc(C(F)(F)F)cc1)c1cccc(N)n1` [Example T-437], the IC50 (with YAP-TEAD; in assay [1]) was no more than 1 µM each time.

As to `C[C@H](NC(=O)c1cnc2c(c1)c1csnc1c(=O)n2-c1ccc(C(F)(F)F)cc1)c1ccccn1` [Example T-439], the IC50 (in the assay with YAP-TEAD; in assay [1]) was no more than 1 µM throughout.

Regarding `CC1CCc2c1c1cc(C(=O)N[C@@H](C)c3ccccn3)ccc1n(-c1ccc(C(F)(F)F)cc1)c2=O` (some centres unmarked) [Example T-445], the IC50 (in the assay on YAP-TEAD; in assay [1]) was no more than 1 µM throughout.

On to `C[C@@H]1CCc2c1c(=O)n(-c1ccc(C(F)(F)F)cc1)c1ccc(C(=O)N[C@@H](C)c3ccccn3)cc21` [Example T-446], for which the IC50 (with YAP-TEAD; in assay [1]) was no more than 1 µM each time.

For the compound `COC[C@@H](C)NC(=O)c1ccc2c(c1)c1cnccc1c(=O)n2-c1ccc(C(F)(F)F)cc1` [Example T-448], the IC50 (with YAP-TEAD; in assay [1]) was 1 to 5 µM throughout.

Take `C[C@H](NC(=O)c1cnc2c(c1)c1cscc1c(=O)n2-c1ccc(C(F)(F)F)cc1)c1cccc(N)n1` [Example T-454]: the IC50 (in the assay with YAP-TEAD; in assay [1]) was no more than 1 µM each time.

As to `C[C@H](NC(=O)c1cnc2c(ccc(=O)n2-c2ccc(C(F)(F)F)cc2)c1)c1cccc(N)n1` [Example T-455], the IC50 (in the assay on YAP-TEAD; in assay [1]) was no more than 1 µM throughout.

In the case of `C[C@H](NC(=O)c1cnc2c(ccc(=O)n2-c2ccc(C(F)(F)F)cc2)c1)c1ccccn1` [Example T-456], the IC50 (with YAP-TEAD; in assay [1]) was no more than 1 µM in each case.
